Reference: patent US4226883A, “Carbamate derivatives and method for manufacture thereof” (priority 1974, dated 1980)

Experiments:
[1] = target: cholinesterase (ChE), susceptible strain; experiment: Inhibition of cholinesterase (acetylthiocholine method), susceptible strain enzyme; type: biochemical, green rice leafhopper, Nephotettix cincticeps; conditions: for IC50: 50% inhibition concentration, 30° C. 30 min with inhibitor, read-out: Inhibition of Cholinesterase I50 (M) S
Procedure: The activity of ChE was performed by the acethyethiocholine method [Ellman (1961), Biochemical Pharmacology 7: 88-95].
[…]. After centrifuged (30,000 g, 10 min.), the supernatant was used as the source of ChE.
(§1) (2) Inhibition: 1.0 ml of enzyme solution was incubated with 0.1 ml of inhibitor which diluted with acetone at 30° C. for 30 min. ((2) solution).
(3) Determination of ChE activity: 1.0 ml of acetylthiochline (3.5/2×10^-2 M), 1.0 ml of DTNB (5,5'-dithiobis-2-nitrobenzoic acid, 2.5×10^-4 M) and 4.0 ml of phosphate buffer (1/15 M, pH 7.4) were added to the (2) solution and incubated at 30° C. for 10 min. After incubation, […] of eserine (2×10^-3 M) was added in order to stop the enzyme reaction and the optical density of the yellow solution was measured at 412 mμ on the spectrophotometer.

[2] = test system: cholinesterase (ChE), resistant strain; type: biochemical, green rice leafhopper, Nephotettix cincticeps; conditions: for Inhibition of Cholinesterase R/S (resistant ratio): ratio of the resistant strain to the susceptible strain (I50), 30 min; for IC50 / rate of inhibition (%) in 10^-3 M, R: resistant strain; for IC50: 50% inhibition concentration, 30° C. 30 min with inhibitor, read-out: Inhibition of Cholinesterase I50 (M) R
Procedure: After centrifuged (30,000 g, 10 min.), the supernatant was used as the source of ChE.
as §1
(3) Determination of ChE activity: 1.0 ml of acetylthiochline (3.5/2×10^-2 M), 1.0 ml of DTNB (5,5'-dithiobis-2-nitrobenzoic acid, 2.5×10^-4 M) and 4.0 ml of phosphate buffer (1/15 M, pH 7.4) were added to the (2) solution and incubated at 30° C. for 10 min.

[3] = test system: resistant green rice leafhoppers (R); conditions: 1440 min; for Insecticidal Activity R/S (resistant ratio): ratio of the resistant strain to the susceptible strain (LD50)
Procedure: (1) A 20-mg portion of a given test compound was weighed out and dissolved in 10 ml of acetone. The resultant solution was diluted at proper times with acetone.
(2) With a micro-syringe, the acetone solution of the test compound was topically applied to the thoracic region of female green rice leafhoppers at a fixed dose of 0.2 μl per head.
(3) The female green rice leafhoppers thus treated were placed in a plastic cup prepared in advance (measuring 7 cm in diameter and 3.5 cm in depth and containing rice seeds) and kept at a constant temperature of 26±1° C. After 24 hours' standing, the dead insects were counted.
In the case of a mixed insecticide, the LD50 was shown as a total dosage.

[4] = test system: green rice leafhoppers of the strain RN; experiment: Test Example 3: dust spray test (20 mesh metal gauze cylinder); type: in vivo, Nephotettix cincticeps; conditions: for death ratio (%), mixture with Compound No. 1 / death ratio (%), mixture with Compound No. 6* / death ratio (%), mixture with Compound No. 24* / death ratio (%), mixture with Compound No. 35* / death ratio (%), mixture with Compound No. 40* / death ratio (%), mixture with Compound No. 49* / death ratio (%), mixture with Compound No. 81* / death ratio (%), mixture with Compound No. 118* / death ratio (%), mixture with Carbofuran / death ratio (%), mixture with Methomyl: Table 9, RN; for death ratio (%), mixture with Compound No. 1: dust mixed with 1; for death ratio (%), mixture with Compound No. 6*: dust mixed with 6*; for death ratio (%), mixture with Compound No. 24*: dust mixed with 24*; for death ratio (%), mixture with Compound No. 35*: dust mixed with 35*; for death ratio (%), mixture with Compound No. 40*: dust mixed with 40*; for death ratio (%), mixture with Compound No. 49*: dust mixed with 49*; for death ratio (%), mixture with Compound No. 81*: dust mixed with 81*; for death ratio (%), mixture with Compound No. 118*: dust mixed with 118*; for death ratio (%), mixture with Carbofuran: dust mixed with Carbofuran; for death ratio (%), mixture with Methomyl: dust mixed with Methomyl; for Effect of individual compound (RN), death ratio (%) (Table 9): dust, compound alone, RN strain
Procedure: The insecticides in the form of dust were tested for insecticidal activity.
The test for insecticidal activity was performed by the following procedure. […] The dust of a test compound (pulverized by means of a shaking pulverizer made by Taira Kosakusho, Ltd.) was applied onto the tube contents at a prescribed rate by spraying from outside the metal gauze by means of a bell-jar duster. The dust of the test compound was prepared uniformly mixing 2 parts of the dust of the individual compound or 1 part each of the dusts of the mixture components (total 2 parts) and 98 parts of a carrier obtained by mixing talc and clay in equal volumes.

| Compound | IC50 [1] [M] | Inhibition of Cholinesterase R/S (resistant ratio) [2] | IC50 [2] [M] | also measured |
| --- | --- | --- | --- | --- |
| CCCCNC(=O)Oc1cccc(C)c1 [Compound 27] | > 0.001 | < 0.3 | 0.00027 | – |
| CCCCNC(=O)Oc1cccc(C(C)CCC)c1 (stereo not shown) [Compound 22] | 5.1e-05 | 0.1 | 6.3e-06 | Insecticidal Activity R/S (resistant ratio) [3]: 0.9 |
| CCNC(=O)Oc1cccc(OCC)c1 [Compound 93] | 0.00044 | 0.8 | 0.00035 | – |
| CNC(=O)Oc1cc(C)c(C)cc1C [Compound 59, reference compound] | 2.3e-06 | 24.8 | 5.7e-05 | – |
| CCCCNC(=O)Oc1ccc(C)c(C)c1 [Compound 38] | 0.00056 | 0.04 | 2e-05 | – |
| CNC(=O)Oc1ccccc1OC [Compound 76, reference compound] | 1.7e-05 | 32.3 | 0.00055 | death ratio (%), mixture with Compound No. 1 [4]: 15.0%; death ratio (%), mixture with Compound No. 6* [4]: 0%; death ratio (%), mixture with Compound No. 24* [4]: 20.0%; death ratio (%), mixture with Compound No. 35* [4]: 10.0%; death ratio (%), mixture with Compound No. 40* [4]: 0%; death ratio (%), mixture with Compound No. 49* [4]: 0%; death ratio (%), mixture with Compound No. 81* [4]: 35.0%; death ratio (%), mixture with Compound No. 118* [4]: 45.0%; death ratio (%), mixture with Carbofuran [4]: 60.0%; death ratio (%), mixture with Methomyl [4]: 55.0%; Effect of individual compound (RN), death ratio (%) (Table 9) [4]: 0% |
| CCNC(=O)Oc1cccc(C(C)CC)c1 (stereo not shown) [Compound 16] | 6.5e-06 | 0.9 | 5.6e-06 | Insecticidal Activity R/S (resistant ratio) [3]: 3.7 |
| CCCCNC(=O)Oc1ccccc1C(C)CC (stereo not shown) [Compound 9] | > 0.001 | < 0.1 | 0.00014 | Insecticidal Activity R/S (resistant ratio) [3]: < 1.0 |
| C=CCNC(=O)Oc1ccccc1 [Compound 144, phenyl-N-allylcarbamate] | > 0.001 | < 0.5 | 0.00052 | rate of inhibition (%) in 10^-3 M, S [1]: 10.00% |
| C#CCOc1cccc(OC(=O)NC)c1 [Compound 100, reference compound] | 3.5e-05 | 24.3 | 0.00085 | – |
| CNC(=O)Oc1ccc(SC)c(C)c1 [Compound 135, reference compound] | 1e-05 | 3.5 | 3.5e-05 | – |
| CCCCNC(=O)Oc1ccccc1 [Compound 143] | > 0.001 | – | > 0.001 | rate of inhibition (%) in 10^-3 M, S [1]: 3.3%; rate of inhibition (%) in 10^-3 M, R [2]: 46.0% |
| C#CCOc1ccccc1OC(=O)NC [Compound 90, reference compound] | 8.2e-06 | 9.6 | 7.9e-05 | – |
| C=CCNC(=O)Oc1cccc(C(C)(C)C)c1 [Compound 34] | 2.6e-05 | 0.3 | 8.9e-06 | Insecticidal Activity R/S (resistant ratio) [3]: 1.1 |
| C=CCOc1ccccc1OC(=O)NC [Compound 88, reference compound] | 7e-06 | 15.7 | 0.00011 | – |
| CCOc1ccccc1OC(=O)NC [Compound 79, reference compound] | 2.5e-05 | 12.0 | 0.0003 | death ratio (%), mixture with Compound No. 1 [4]: 0%; death ratio (%), mixture with Compound No. 6* [4]: 0%; death ratio (%), mixture with Compound No. 24* [4]: 0%; death ratio (%), mixture with Compound No. 35* [4]: 0%; death ratio (%), mixture with Compound No. 40* [4]: 10.0%; death ratio (%), mixture with Compound No. 49* [4]: 0%; death ratio (%), mixture with Compound No. 81* [4]: 5.0%; death ratio (%), mixture with Compound No. 118* [4]: 25.0%; death ratio (%), mixture with Carbofuran [4]: 40.0%; Effect of individual compound (RN), death ratio (%) (Table 9) [4]: 0% |
| CCCCNC(=O)Oc1cc(C)cc(C)c1 [Compound 43] | 0.00068 | 0.04 | 2.7e-05 | – |
| CNC(=O)Oc1ccccc1 [Compound 140, reference compound] | 0.00013 | – | > 0.001 | rate of inhibition (%) in 10^-3 M, R [2]: 42.5% |
| CCOc1cccc(OC(=O)NC)c1 [Compound 92, reference compound] | 1.7e-05 | 17.6 | 0.0003 | death ratio (%), mixture with Compound No. 1 [4]: 0%; death ratio (%), mixture with Compound No. 6* [4]: 0%; death ratio (%), mixture with Compound No. 24* [4]: 0%; death ratio (%), mixture with Compound No. 35* [4]: 10.0%; death ratio (%), mixture with Compound No. 40* [4]: 5.0%; death ratio (%), mixture with Compound No. 49* [4]: 0%; death ratio (%), mixture with Compound No. 81* [4]: 0%; death ratio (%), mixture with Compound No. 118* [4]: 25.0%; death ratio (%), mixture with Carbofuran [4]: 20.0%; death ratio (%), mixture with Methomyl [4]: 40.0%; Effect of individual compound (RN), death ratio (%) (Table 9) [4]: 0% |
| C=CCNC(=O)Oc1cccc(C(C)CCC)c1 (stereo not shown) [Compound 23] | – | 0.3 | 1.3e-06 | Insecticidal Activity R/S (resistant ratio) [3]: 0.7 |
| CNC(=O)Oc1ccccc1N(C)C [Compound 106, reference compound] | 9.6e-06 | 13.5 | 0.00013 | – |
| CNC(=O)Oc1ccccc1NC(C)C [Compound 110, reference compound] | 2.3e-06 | 73.9 | 0.00017 | – |
| CCNC(=O)Oc1ccccc1 [Compound 141, phenyl-N-ethylcarbamate] | > 0.001 | – | > 0.001 | rate of inhibition (%) in 10^-3 M, S [1]: 30.4%; rate of inhibition (%) in 10^-3 M, R [2]: 43.4% |
| C=CCOc1cccc(OC(=O)NC)c1 [Compound 98, reference compound] | 4.1e-06 | 87.8 | 0.00036 | – |
| CCCNC(=O)Oc1ccccc1 [Compound 142, phenyl-N-n-propylcarbamate] | > 0.001 | < 0.6 | 0.00066 | rate of inhibition (%) in 10^-3 M, S [1]: 12.0% |
| CNC(=O)Oc1ccccc1OC(C)C [Compound 81, 2-isopropoxyphenyl-N-methylcarbamate, reference compound] | – | – | – | Effect of individual compound, LD50 (μ g/g) (Table 5-2) ([3]; compound alone): > 100 μ g/g; death ratio (%), mixture with Compound No. 1 [4]: 0%; death ratio (%), mixture with Compound No. 6* [4]: 5.0%; death ratio (%), mixture with Compound No. 24* [4]: 0%; death ratio (%), mixture with Compound No. 35* [4]: 15.0%; death ratio (%), mixture with Compound No. 40* [4]: 20.0%; death ratio (%), mixture with Compound No. 49* [4]: 0%; death ratio (%), mixture with Compound No. 81* [4]: 10.0%; death ratio (%), mixture with Compound No. 118* [4]: 57.5%; death ratio (%), mixture with Carbofuran [4]: 30.0%; death ratio (%), mixture with Methomyl [4]: 35.0%; Effect of individual compound (RN), death ratio (%) (Table 9) [4]: 0% |
| CCC(C)Oc1ccccc1OC(=O)NC (stereo not shown) [Compound 86, reference compound] | 2.1e-06 | 31.9 | 6.7e-05 | – |
| CCCCNC(=O)Oc1cccc(C(C)C)c1 [Compound 14] | 7.4e-05 | 0.2 | 1.7e-05 | – |
| C=CCNC(=O)Oc1cccc(C)c1 [Compound 28, 3-methylphenyl-N-allylcarbamate] | – | – | – | Insecticidal Activity R/S (resistant ratio) [3]: 1.8; mortality at 100 mg/cylinder ([4]; 2% dust, 100 mg, 24 hr, read-out: Mortality (%) after 24 hr., 100 mg Spray (Table 7)): 60%; mortality at 250 mg/cylinder ([4]; 2% dust, 250 mg, 24 hr, read-out: Mortality (%) after 24 hr., 250 mg Spray (Table 7)): 100% |
| CCCCNC(=O)Oc1cc(C)cc(C(C)C)c1 [Compound 48] | > 0.001 | < 0.09 | 8.8e-05 | – |
